This is an account of results in patent US11634423B2, “Substituted pyrazolo[1,5-a]pyrimidines as inhibitors of interferon signaling” (Eli Lilly and Company, priority 2020, dated 2023).

For assay [1], the system named is IFNα signaling through pSTAT1 in TF1 cells. The assay is described as follows: Inhibition of IFNα signaling through pSTAT1 in TF1 cells. In kind it is cell-based. The following applies: Homo sapiens, TF-1, 1 hour preincubation, 10 ng/mL IFNα2 for 20 minutes, p-Stat1 (Tyr701) AlphaLISA, geometric mean (SEM), read-out: IFNα inh IC50. On the procedure:
TF1 cells (ATCC, CL-2003) are grown in RPMI 1640 (GIBCO) supplemented with 10% dialyzed FBS, 0.1 mg/mL Ampicillin and 2 ng/mL granulocyte macrophage colony stimulating factor. TF1 cells (100 K per well) are seeded in a 96-well poly-D-lysine coated plates in serum-free DMEM and incubated overnight at 37° C. under 5% CO2. Example 1 is serially diluted in DMSO, added to the cells, and incubated at 37° C. for 1 hour. Cells are then stimulated with 10 ng/mL IFNα2 at 37° C. for 20 minutes. After removing the medium, the cells are lysed in buffer containing Halt protease and phosphatase inhibitor cocktail (Thermo Scientific #78441) at ambient temperature for 30 minutes. The amount of p-Stat1 (Tyr701) is quantified as light emission at 615 nm using the AlphaLISA SureFire Ultra p-Stat1 (Tyr701) assay kit (Perkin Elmer #ALSU-PST1-A50K) following the vendor's recommended protocol. Percent inhibition at each inhibitor concentration is calculated and fit to the four parameter nonlinear logistic equation using Genedata Screener© to give an IC50 for the compounds tested expressed as GeoMetric means with the standard error of the mean (SEM).
For orientation: Bead proximity is the source of the signal in Alpha formats.

Assay [2] relates to IL-23 signaling (STAT3 phosphorylation) in Kit225 cells. The assay is described as follows: IL23 pSTAT3 AlphaLISA Assay. In kind it is cell-based. The following applies: 0.5 h, 1 hour preincubation, IL-23 25 ng/mL for 30 minutes, in presence of IL-2, relative IC50, geometric mean (SEM), read-out: IL-23 inh IC50. On the procedure: IL-2-dependent Kit225 cells (University of Texas MD Anderson Cancer Center) expressing endogenous IL-23 receptors are stably transduced with the Lenti STAT3 Reporter linked to firefly luciferase (SABiosciences CLS-6028L). These cells are used to monitor TYK2 activity by quantifying gene expression caused by STAT3 phosporylation following induction by IL-23 in the presence of IL-2 using AlphaLISA technology (TGR Biosciences ALSU-TST3-A50K). The cells are grown in RPMI 1640 (Gibco 22400) supplemented with 10% FBS (Invitrogen 10082), 1× Pen/Strep (Gibco 15140-122), 200 ng/ml Puromycin (Sigma P9620), and fresh 10 ng/ml recombinant human IL-2 (R&D Systems 202-IL-50).
For assay preparation, cells are dispensed into Biocoat black poly-d-lysine coated clear bottom 384-well plates (Becton Dickinson Bio-Coat 35-4640) in DMEM (Sigma D5796) at 300,000 cells/well and allowed to incubate overnight at 37° C. Compounds solubilized in DMSO are serially diluted 1:3 to produce a 10-point concentration response curve (final DMSO=0.1%). Cells are pre-incubated with Example 1 for 1 hour at 37° C., then stimulated with IL-23 (25 ng/mL final) for 30 minutes. After centrifugation at 2000 rpm for 10 minutes, cell pellets are lysed with a mixture of 1:1 lysis buffer (TGR Biosciences) and Halt Protease & Phosphatase inhibitor cocktail (Thermo Scientific 1861281) for 30 minutes. The AlphaLISA reaction is performed following the vendor's recommended protocol, and the luciferase levels are measured using an Envision plate reader (Perkin Elmer). The relative IC50 is calculated using a 4-parameter nonlinear logistic equation (GeneData Screener 13.0.5) to give an IC50 for the compounds tested expressed as GeoMetric means with the standard error of the mean (SEM).

For assay [3], the target named is T1, pseudokinase domain (JH2) of human TYK2 (Homo sapiens, UniProt P29597).
T1 construct: The pseudokinase domain (JH2) of human JAK; made in house
The assay is described as follows: TYK2-JH2 Tracer Binding Assay. The following applies: TR-FRET tracer displacement, His-tagged TYK2-JH2 0.200 nM, Tracer 2.00 nM, 30 minutes. An excerpt:
The pseudokinase domain (JH2) of human JAK (Janus family of cytoplasmic tyrosine kinases) family tyrosine kinase 2 (TYK2) (Genbank NP_003322) with an N-terminal His6 tag is expressed in baculovirus and purified by HisPur Ni-NTA affinity and Superdex 200 size-exclusion chromatography. The compound prepared in Preparation 17, a conjugate of Alexa Fluor 647 dye (Thermo Fisher Scientific) and a suitable TYK2 JH2 binder, is referred to herein as “the Tracer”. A 3 fold, 10 point serial dilution of compound (Examples 1, 2, and 3) are prepared in 100% DMSO and 50 nL/well transferred to a Proxiplate-384F white plate (PerkinElmer 6008280) using acoustic liquid handling. Control wells used to determine percent inhibition contained 100% DMSO (50 nL) and either assay buffer containing the Tracer (2.00 nM final concentration) (min, low FRET) or diluted TYK2-JH2 enzyme (0.200 nM final concentration) and the Tracer (2.00 nM final concentration) (max, high FRET).
5.0 μL of His-tagged TYK2-JH2 (0.402 nM) and LanthaScreen Eu-anti-HIS Ab (4.02 nM, LifeTech, PV5597) in assay buffer (50 mM HEPES […], 10 mM magnesium chloride, 1 mM ethylene glycol-bis(β-aminoethyl ether)-N,N,N′,N′-tetraacetic acid, 0.01% Brij-35 and Milli-Q) water is added to the Proxiplate-384 plate containing the 50 nL of diluted compound and control wells. 5.0 μL of the Tracer (2.00 nM final concentration) in assay buffer is added to the plate and allowed to equilibrate for 30 minutes at ambient temperature. After 30 minutes, the plate is counted on a PerkinElmer Envision with the following settings: Excitation (340 nm), Tracer Emission (665 nm) and LanthaScreen Eu-anti-His Antibody Emission (615 nm). The ratio of Tracer Emission (665 nm) over LanthaScreen Eu-anti-His Antibody Emission (615 nm) is determined. Percent inhibition of ratio at each inhibitor concentration is calculated using the max and min control wells and fit to the four parameter nonlinear logistic equation in GeneData Screener® to give an IC50 for the compounds tested.
A general note: In TR-FRET formats the signal depends on donor and acceptor labels being close together.

T1 sequence (P29597 589-875 limits assumed): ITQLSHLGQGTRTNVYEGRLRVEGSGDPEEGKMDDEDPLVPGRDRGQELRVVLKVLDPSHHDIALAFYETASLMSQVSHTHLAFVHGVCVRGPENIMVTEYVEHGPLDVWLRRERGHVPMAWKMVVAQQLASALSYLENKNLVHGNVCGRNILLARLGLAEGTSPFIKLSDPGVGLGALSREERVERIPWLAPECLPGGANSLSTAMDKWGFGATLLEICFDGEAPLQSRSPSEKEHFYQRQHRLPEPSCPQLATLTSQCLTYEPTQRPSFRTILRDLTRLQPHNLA

On to `CNc1cc(Nc2cccn(-c3ccccn3)c2=O)nc2c(C(=O)N[C@@H]3CCN(C)C3=O)cnn12` [Example 3, 7-(Methylamino)-N-[(3R)-1-methyl-2-oxo-pyrrolidin-3-yl]-5-[[2-oxo-1-(2-pyridyl)-3-pyridyl]amino]pyrazolo[1,5-a]pyrimidine-3-carboxamide], for which the IC50 is 106 nM in assay [1], 101 nM in assay [2] and under 0.254 nM in assay [3].

In the case of `CNc1cc(Nc2cccn(-c3cccc(C)n3)c2=O)nc2c(C(=O)N[C@@H]3CCN(C)C3=O)cnn12` [Example 2, 7-(Methylamino)-N-[(3R)-1-methyl-2-oxo-pyrrolidin-3-yl]-5-[[1-(6-methyl-2-pyridyl)-2-oxo-3-pyridyl]amino]pyrazolo[1,5-a]pyrimidine-3-carboxamide], the IC50 is 206 nM in assay [1], 101 nM in assay [2] and under 0.254 nM in assay [3].

On to `CNc1cc(Nc2cccn(-c3ccc(C)cn3)c2=O)nc2c(C(=O)N[C@@H]3CCN(C)C3=O)cnn12` [Example 1, 7-(Methylamino)-N-[(3R)-1-methyl-2-oxo-pyrrolidin-3-yl]-5-[[1-(5-methyl-2-pyridyl)-2-oxo-3-pyridyl]amino]pyrazolo[1,5-a]pyrimidine-3-carboxamide], for which the IC50 is 112 nM in assay [1], 65 nM in assay [2] and under 0.254 nM in assay [3].

By IC50 is commonly meant the concentration that gives 50% inhibition.
